What was measured:
[1] = SBT-272 level in brain homogenates after ET-1 injection; assay type: in vivo; conditions: rat hemibrain, 24 hours after final treatment
Excerpt: FIG. 2B is a schematic showing the experimental design. Dotted lines indicate left and right subsection of hemibrain used for RCR and PK analysis (FIG. 2B). FIG. 2C: individual respiratory control ratios (RCR) per animal (n=8 per group) from the stroke-induced subsection of the right hemisphere. FIG. 2D: SBT-272 level in the brain homogenates from the same hemisphere after ET-1 injection. ET1=endothelin-1, vasoconstrictive peptide (*P<0.05, Kruskal-Wallis followed by Dunn's test).
Improved respiratory control ratio after cerebral ischemia reperfusion. To assess its pharmacodynamic effect on mitochondrial function in the brain, SBT-272 was tested in a rat model of acute ischemia. The mitochondrial effects of SBT-272 were determined using the respiratory control ratio (RCR), the ratio of coupled respiration (supporting oxidative phosphorylation) to respiratory rate in the absence of ADP (“leak” respiration). The high mitochondrial RCR in sham-treated animals (9.0±0.1) confirmed that the mitochondrial were healthy, as the majority of respiration accounted for replenishing cellular ATP levels (FIG. 2C).

[2] = Phase 1 clinical plasma PK in healthy volunteers; assay type: in vivo, human
Excerpt: The primary objective of this study is to evaluate the safety and tolerability of single and multiple ascending doses of SBT-272 administered via subcutaneous injection in healthy volunteers. The secondary objects of this study are to: (a) evaluate the plasma PK of SBT-272 in healthy volunteers following subcutaneous administration of single and multiple ascending doses; and (b) to determine an appropriate dose range for subsequence clinical evaluation.

[3] = Steady state PK in plasma, CSF, brain after 5 daily s.c. doses in rats; assay type: in vivo, male Sprague-Dawley rat; conditions: rat, 10 mg/kg s.c., 5 daily doses
Description: Pharmacokinetic profile of SBT-272 in rat plasma, CSF, and brain (for FIG. 5A). The objective of this study was to evaluate the pharmacokinetics of SBT-272 in microdialysate from the prefrontal cortex (PFC) and striatum (STR), and in plasma and CSF of freely-moving adult male Sprague-Dawley rats. The experiments and the analysis were performed at Charles River Laboratories Den Bosch B.V., location Groningen (Groningen, the Netherlands).
Test items. Test compound was SBT-272. The molecular weight of SBT-272 is 607.75 g/mol in the salt-free form, and 717.13 g/mol in the salt form.
In vivo experiments: Animals. A total of six male Sprague-Dawley rats (309-329 g; CRL Sulzfeld, Germany) were used for the experiments. The experiments were conducted in strict accordance with the Guide for the Care and Use of Laboratory Animals (National Research Council 2011) and were in accordance with European Union directive 2010/63 and the Dutch law. The experiments were carried out under license number AVD23600202011187, issued by the national committee for licensing of animal experiments (Centrale Commissie Dierproeven) and were approved by the Animal Care and Use Committee (Instantie voor Dierenwelzijn) of Charles River Discovery Groningen.
Following arrival, animals were housed in groups of 5 in polycarbonate cages (56 X 33×20 cm) with wire mesh top in a temperature (22±2 °C) and humidity (55±15%) controlled environment on a 12 hour light cycle (07.00-19.00 h). After surgery, animals were housed individually (cages 30×30×40 cm). Standard diet (A04 mod. R/M-M, Ssniff, Germany) and domestic quality mains water were available ad libitum.
In vivo experiments: Surgery. Animals were anesthetized using isoflurane (2% and 800 mL/min 02). Before surgery, carprofen (5 mg/kg, s.c.) was administered for peri- and post-operative analgesia. A mixture of bupivacaine and epinephrine was applied to the incision site and periosteum of the skull for local analgesia.
In vivo experiments: Microdialysis probe implantation. Each animal was placed in a stereotaxic frame (Kopf instruments, USA). […]

Cc1cc(O)cc(C)c1C[C@H](NC(=O)[C@H](N)CCCNC(=N)N)C(=O)N[C@@H](CCCCN)c1nc(Cc2ccccc2)no1 [SBT-272, (R)-2-amino-N—((S)-1-(((S)-5-amino-1-(3-benzyl-1,2,4-oxadiazol-5-yl)pentyl)amino)-3-(4-hydroxy-2,6-dimethylphenyl)-1-oxopropan-2-yl)-5-guanidinopentanamide]
brain concentration, dose relation [1]: dose proportional | clinical PK versus expectations based on rat and nonhuman primate profiles ([2]; Phase 1, healthy volunteers, SC): consistent with expectations based on rat and nonhuman primate profiles | clinical PK profile versus non-clinical allometric scaling predictions ([2]; healthy subjects, FIG. 7, 40 mg once daily, interim): consistent with non-clinical allometric scaling predictions | Kp ([3]; brain, sc, read-out: brain:plasma ratio): 178 | brain:CSF ratio [3]: 182 | plasma:CSF ratio [3]: 1.03

Source: patent US20260373226A1, “METHODS AND COMPOSITIONS FOR THE TREATMENT OF NEURODEGENERATIVE DISEASE” (Stealth BioTherapeutics Inc., priority 2022, published 2026)
